Tests used:
Assay in all cases: cells
Assay type in all cases: functional, cell-based
Details in all cases: Homo sapiens
COLO-792 = system: COLO-792
Description: SANGER: Inhibition of human COLO-792 cell growth in a cell viability assay.

COR-L105 = system: COR-L105;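 also: cell growth inhibition determined with a viability assay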
Description: SANGER: Inhibition of human COR-L105 cell growth in a cell viability assay.

DBTRG-05MG = system: DBTRG-05MG;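 also: cell viability assay measuring growth inhibition of human DBTRG-05MG cells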
Description: SANGER: Inhibition of human DBTRG-05MG cell growth in a cell viability assay.

EFO-21 = system: EFO-21;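 also: growth inhibition of EFO-21 cells measured with a viability assay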
Description: SANGER: Inhibition of human EFO-21 cell growth in a cell viability assay.

EFO-27 = system: EFO-27;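 also: growth inhibition of EFO-27 cells, read out with a cell viability assay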
Description: SANGER: Inhibition of human EFO-27 cell growth in a cell viability assay.

EW-22 = system: EW-22;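 also: growth inhibition of the EW-22 cell line, measured with a cell viability readout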
Description: SANGER: Inhibition of human EW-22 cell growth in a cell viability assay.

H4 = system: H4
Description: SANGER: Inhibition of human H4 cell growth in a cell viability assay.

HCC1419 = system: HCC1419;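 also: growth inhibition of human HCC1419 cells, read out as cell viability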
Description: SANGER: Inhibition of human HCC1419 cell growth in a cell viability assay.

HCC38 = system: HCC38;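 also: cell viability assay on the human HCC38 cell line, with IC50 marking the concentration that inhibits cell growth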
Description: SANGER: Inhibition of human HCC38 cell growth in a cell viability assay.

HCT-116 = system: HCT-116
Description: SANGER: Inhibition of human HCT-116 cell growth in a cell viability assay.

HLE = system: HLE;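 also: growth inhibition of human HLE cells, read out by a cell viability assay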
Description: SANGER: Inhibition of human HLE cell growth in a cell viability assay.

HT-1080 = system: HT-1080
Description: SANGER: Inhibition of human HT-1080 cell growth in a cell viability assay.

HT-3 = system: HT-3;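 also: growth inhibition measured with a cell viability readout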
Description: SANGER: Inhibition of human HT-3 cell growth in a cell viability assay.

Hs-578T = system: Hs-578T
Description: SANGER: Inhibition of human Hs-578-T cell growth in a cell viability assay.

HuO9 = system: HuO9;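 also: growth inhibition of HuO9 cells, read out with a cell viability assay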
Description: SANGER: Inhibition of human HuO9 cell growth in a cell viability assay.

J82 = system: J82;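 also: growth inhibition of J82 cells, read out with a cell viability assay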
Description: SANGER: Inhibition of human J82 cell growth in a cell viability assay.

KU-19-19 = system: KU-19-19
Description: SANGER: Inhibition of human KU-19-19 cell growth in a cell viability assay.

KYSE-510 = system: KYSE-510;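 also: cell viability readout used to measure how strongly growth of the cell line is suppressed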
Description: SANGER: Inhibition of human KYSE-510 cell growth in a cell viability assay.

KYSE-520 cell line = system: KYSE-520 cell line;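 also: growth inhibition of human KYSE-520 cells, read out with a viability assay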
Description: SANGER: Inhibition of human KYSE-520 cell growth in a cell viability assay.

KYSE-70 cell line = system: KYSE-70 cell line;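 also: cell viability assay read-out, with IC50 expressing suppression of KYSE-70 cell growth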
Description: SANGER: Inhibition of human KYSE-70 cell growth in a cell viability assay.

LB996-RCC = system: LB996-RCC
Description: SANGER: Inhibition of human LB996-RCC cell growth in a cell viability assay.

LK-2 = system: LK-2;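 also: growth inhibition of LK-2 cells, read out with a viability assay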
Description: SANGER: Inhibition of human LK-2 cell growth in a cell viability assay.

LU-99A = system: LU-99A;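 also: growth inhibition of LU-99A cells, read out with a cell viability assay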
Description: SANGER: Inhibition of human LU-99A cell growth in a cell viability assay.

MDA-MB-175-VII = system: MDA-MB-175-VII
MG-63 = system: MG-63;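 also: growth inhibition of human MG-63 cells, read out with a cell viability assay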
Description: SANGER: Inhibition of human MG-63 cell growth in a cell viability assay.

NB7 = system: NB7;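 also: growth inhibition of NB7 cells, read out with a cell viability assay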
Description: SANGER: Inhibition of human NB7 cell growth in a cell viability assay.

NCI-H1651 = system: NCI-H1651;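 also: Read-out is a cell viability assay, with IC50 expressing inhibition of NCI-H1651 cell growth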
Description: SANGER: Inhibition of human NCI-H1651 cell growth in a cell viability assay.

NCI-H1792 = system: NCI-H1792;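 also: growth inhibition of human NCI-H1792 cells, read out as cell viability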
Description: SANGER: Inhibition of human NCI-H1792 cell growth in a cell viability assay.

NCI-H2122 = system: NCI-H2122;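 also: growth inhibition of the cells, read out with a cell viability assay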
Description: SANGER: Inhibition of human NCI-H2122 cell growth in a cell viability assay.

NCI-H441 = system: NCI-H441;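 also: growth inhibition of NCI-H441 cells, read out with a cell viability assay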
Description: SANGER: Inhibition of human NCI-H441 cell growth in a cell viability assay.

NCI-H596 = system: NCI-H596;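 also: growth inhibition of NCI-H596 cells, read out with a cell viability assay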
Description: SANGER: Inhibition of human NCI-H596 cell growth in a cell viability assay.

OAW-42 = system: OAW-42;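 also: growth inhibition of OAW-42 cells, read out with a cell viability assay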
Description: SANGER: Inhibition of human OAW-42 cell growth in a cell viability assay.

PC-14 = system: PC-14;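 also: cell viability assay measuring inhibition of PC-14 cell growth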
Description: SANGER: Inhibition of human PC-14 cell growth in a cell viability assay.

RERF-LC-MS = system: RERF-LC-MS;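 also: growth inhibition of human RERF-LC-MS cells, read out by a cell viability assay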
Description: SANGER: Inhibition of human RERF-LC-MS cell growth in a cell viability assay.

RT-112 = system: RT-112
Description: SANGER: Inhibition of human RT-112 cell growth in a cell viability assay.

SCC-9 = system: SCC-9;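 also: Read-out is a cell viability assay, with values giving inhibition of cell growth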
Description: SANGER: Inhibition of human SCC-9 cell growth in a cell viability assay.

SF-295 = system: SF-295;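 also: growth inhibition of SF-295 cells, read out with a cell viability assay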
Description: SANGER: Inhibition of human SF295 cell growth in a cell viability assay.

SK-MEL-24 = system: SK-MEL-24;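 also: growth inhibition read out by a cell viability assay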
Description: SANGER: Inhibition of human SK-MEL-24 cell growth in a cell viability assay.

SNU-387 = system: SNU-387
Description: SANGER: Inhibition of human SNU-387 cell growth in a cell viability assay.

SW1783 = system: SW1783;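 also: cell growth inhibition measured with a viability assay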
Description: SANGER: Inhibition of human SW1783 cell growth in a cell viability assay.

SW948 = system: SW948;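 also: growth inhibition of SW948 cells, read out with a cell viability assay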
Description: SANGER: Inhibition of human SW948 cell growth in a cell viability assay.

SiHa = system: SiHa;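 also: Viability-based readout of growth inhibition in SiHa cells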
Description: SANGER: Inhibition of human SiHa cell growth in a cell viability assay.

T84 = system: T84;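 also: growth inhibition measured with a cell viability readout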
Description: SANGER: Inhibition of human T84 cell growth in a cell viability assay.

639-V = system: 639-V;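 also: growth inhibition of 639-V cells, read out with a cell viability assay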
Description: SANGER: Inhibition of human 639-V cell growth in a cell viability assay.

8305C = system: 8305C
Description: SANGER: Inhibition of human 8305C cell growth in a cell viability assay.

A-431 = system: A-431;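 also: growth inhibition of A-431 cells, determined with a cell viability read-out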
Description: SANGER: Inhibition of human A431 cell growth in a cell viability assay.

AU565 = system: AU565;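 also: cell viability assay measuring growth inhibition of human AU565 cells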
Description: SANGER: Inhibition of human AU565 cell growth in a cell viability assay.

BFTC-905 = system: BFTC-905
Description: SANGER: Inhibition of human BFTC-905 cell growth in a cell viability assay.

U-251 = system: U-251;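 also: growth inhibition of human U-251 cells, read out through a cell viability assay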
Description: SANGER: Inhibition of human U251 cell growth in a cell viability assay.

UACC-893 = system: UACC-893
Description: SANGER: Inhibition of human UACC-893 cell growth in a cell viability assay.

Kasumi 1 = system: Kasumi 1;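 also: growth inhibition of human Kasumi-1 cells, read out by a cell viability assay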
Description: SANGER: Inhibition of human KASUMI-1 cell growth in a cell viability assay.

CCCS(=O)(=O)Nc1ccc(F)c(C(=O)c2c[nH]c3ncc(Cl)cc23)c1F [PLX-4720]
IC50 (COLO-792): > 10 µM
IC50 (COR-L105): > 10 µM
IC50 (DBTRG-05MG): 4.53 µM
IC50 (EFO-21): > 10 µM
IC50 (EFO-27): > 10 µM
IC50 (EW-22): > 10 µM
IC50 (H4): 6.22 µM
IC50 (HCC1419): > 10 µM
IC50 (HCC38): > 10 µM
IC50 (HCT-116): > 10 µM
IC50 (HLE): > 10 µM
IC50 (HT-1080): 6.11 µM
IC50 (HT-3): > 10 µM
IC50 (Hs-578T): > 10 µM
IC50 (HuO9): > 10 µM
IC50 (J82): > 10 µM
IC50 (KU-19-19): > 10 µM
IC50 (KYSE-510): > 10 µM
IC50 (KYSE-520 cell line): > 10 µM
IC50 (KYSE-70 cell line): > 10 µM
IC50 (LB996-RCC): > 10 µM
IC50 (LK-2): > 10 µM
IC50 (LU-99A): > 10 µM
IC50 (MDA-MB-175-VII): > 10 µM
IC50 (MG-63): > 10 µM
IC50 (NB7): 6.21 µM
IC50 (NCI-H1651): > 10 µM
IC50 (NCI-H1792): > 10 µM
IC50 (NCI-H2122): > 10 µM
IC50 (NCI-H441): > 10 µM
IC50 (NCI-H596): > 10 µM
IC50 (OAW-42): > 10 µM
IC50 (PC-14): > 10 µM
IC50 (RERF-LC-MS): > 10 µM
IC50 (RT-112): > 10 µM
IC50 (SCC-9): > 10 µM
IC50 (SF-295): > 10 µM
IC50 (SK-MEL-24): > 10 µM
IC50 (SNU-387): > 10 µM
IC50 (SW1783): > 10 µM
IC50 (SW948): > 10 µM
IC50 (SiHa): > 10 µM
IC50 (T84): > 10 µM
IC50 (639-V): > 10 µM
IC50 (8305C): 5.19 µM
IC50 (A-431): > 10 µM
IC50 (AU565): > 10 µM
IC50 (BFTC-905): > 10 µM
IC50 (U-251): > 10 µM
IC50 (UACC-893): > 10 µM

Cn1c(=O)n(-c2ccc(C(C)(C)C#N)cc2)c2c3cc(-c4cnc5ccccc5c4)ccc3ncc21 [DACTOLISIB]
IC50 (COLO-792): 0.354 µM
IC50 (COR-L105): 0.015 µM
IC50 (DBTRG-05MG): 0.198 µM
IC50 (EFO-21): 0.288 µM
IC50 (EFO-27): 0.0243 µM
IC50 (EW-22): 0.0462 µM
IC50 (H4): 0.0127 µM
IC50 (HCC1419): 0.0387 µM
IC50 (HCC38): 0.266 µM
IC50 (HCT-116): 0.131 µM
IC50 (HLE): 0.0535 µM
IC50 (HT-1080): 0.0219 µM
IC50 (HT-3): 0.38 µM
IC50 (Hs-578T): 0.0246 µM
IC50 (HuO9): 0.0268 µM
IC50 (J82): 0.185 µM
IC50 (KU-19-19): 0.0311 µM
IC50 (KYSE-510): 0.0658 µM
IC50 (KYSE-520 cell line): 0.253 µM
IC50 (KYSE-70 cell line): 0.152 µM
IC50 (LB996-RCC): 0.0472 µM
IC50 (LK-2): 0.0771 µM
IC50 (LU-99A): 0.117 µM
IC50 (MDA-MB-175-VII): 0.0395 µM
IC50 (MG-63): 0.0234 µM
IC50 (NB7): 0.19 µM
IC50 (NCI-H1651): 0.344 µM
IC50 (NCI-H1792): 0.0662 µM
IC50 (NCI-H2122): 0.201 µM
IC50 (NCI-H441): 0.895 µM
IC50 (NCI-H596): 0.228 µM
IC50 (OAW-42): 0.0734 µM
IC50 (PC-14): 0.0466 µM
IC50 (RERF-LC-MS): 0.124 µM
IC50 (RT-112): 0.0197 µM
IC50 (SCC-9): 0.293 µM
IC50 (SF-295): 0.0189 µM
IC50 (SK-MEL-24): 0.517 µM
IC50 (SNU-387): 0.104 µM
IC50 (SW1783): 0.11 µM
IC50 (SW948): > 2 µM
IC50 (SiHa): 0.329 µM
IC50 (T84): > 2 µM
IC50 (639-V): 0.0854 µM
IC50 (8305C): 0.0419 µM
IC50 (A-431): 0.09 µM
IC50 (AU565): 0.213 µM
IC50 (BFTC-905): 0.0607 µM
IC50 (U-251): 0.0384 µM
IC50 (UACC-893): 0.406 µM

O=c1cc(N2CCOCC2)oc2c(-c3cccc4c3sc3ccccc34)cccc12
IC50 (COLO-792): > 2 µM
IC50 (COR-L105): > 2 µM
IC50 (DBTRG-05MG): > 2 µM
IC50 (EFO-21): > 2 µM
IC50 (EFO-27): > 2 µM
IC50 (EW-22): > 2 µM
IC50 (H4): > 2 µM
IC50 (HCC1419): > 2 µM
IC50 (HCC38): > 2 µM
IC50 (HCT-116): > 2 µM
IC50 (HLE): > 2 µM
IC50 (HT-1080): > 2 µM
IC50 (HT-3): > 2 µM
IC50 (Hs-578T): > 2 µM
IC50 (HuO9): > 2 µM
IC50 (J82): > 2 µM
IC50 (KU-19-19): > 2 µM
IC50 (KYSE-510): > 2 µM
IC50 (KYSE-520 cell line): > 2 µM
IC50 (KYSE-70 cell line): > 2 µM
IC50 (LB996-RCC): > 2 µM
IC50 (LK-2): > 2 µM
IC50 (LU-99A): > 2 µM
IC50 (MDA-MB-175-VII): > 2 µM
IC50 (MG-63): > 2 µM
IC50 (NB7): 1.25 µM
IC50 (NCI-H1651): > 2 µM
IC50 (NCI-H1792): > 2 µM
IC50 (NCI-H2122): > 2 µM
IC50 (NCI-H441): > 2 µM
IC50 (NCI-H596): > 2 µM
IC50 (OAW-42): > 2 µM
IC50 (PC-14): > 2 µM
IC50 (RERF-LC-MS): > 2 µM
IC50 (RT-112): > 2 µM
IC50 (SCC-9): > 2 µM
IC50 (SF-295): > 2 µM
IC50 (SK-MEL-24): > 2 µM
IC50 (SNU-387): > 2 µM
IC50 (SW1783): > 2 µM
IC50 (SW948): > 2 µM
IC50 (SiHa): > 2 µM
IC50 (T84): > 2 µM
IC50 (639-V): 1.44 µM
IC50 (8305C): > 2 µM
IC50 (A-431): > 2 µM
IC50 (AU565): > 2 µM
IC50 (BFTC-905): > 2 µM
IC50 (U-251): > 2 µM
IC50 (UACC-893): > 2 µM

CC[C@@]1(O)C(=O)OCc2c1cc1n(c2=O)Cc2cc3ccccc3nc2-1 [CAMPTOTHECIN]
IC50 (DBTRG-05MG): 0.0409 µM
IC50 (EFO-21): 0.0203 µM
IC50 (EFO-27): 0.081 µM
IC50 (EW-22): 0.000557 µM
IC50 (H4): 0.000615 µM
IC50 (HCC1419): > 0.1 µM
IC50 (HCC38): 0.0129 µM
IC50 (HCT-116): 0.00505 µM
IC50 (HLE): 0.00575 µM
IC50 (HT-1080): 0.000394 µM
IC50 (HT-3): 0.000212 µM
IC50 (HuO9): 0.00288 µM
IC50 (J82): 0.00472 µM
IC50 (Kasumi 1): 0.00407 µM
IC50 (KU-19-19): 0.022 µM
IC50 (KYSE-510): 0.00675 µM
IC50 (KYSE-520 cell line): 0.0826 µM
IC50 (KYSE-70 cell line): 0.0921 µM
IC50 (LK-2): 0.0355 µM
IC50 (LU-99A): 0.00385 µM
IC50 (MDA-MB-175-VII): 0.083 µM
IC50 (MG-63): 0.00765 µM
IC50 (NB7): 0.0168 µM
IC50 (NCI-H1651): 0.0149 µM
IC50 (NCI-H1792): 0.0401 µM
IC50 (NCI-H2122): 0.013 µM
IC50 (NCI-H441): 0.0285 µM
IC50 (NCI-H596): > 0.1 µM
IC50 (OAW-42): 0.00899 µM
IC50 (PC-14): 0.0136 µM
IC50 (RERF-LC-MS): 0.0229 µM
IC50 (RT-112): 0.0149 µM
IC50 (SCC-9): 0.0332 µM
IC50 (SF-295): 0.00791 µM
IC50 (SK-MEL-24): 0.0385 µM
IC50 (SW1783): 0.0246 µM
IC50 (SiHa): 0.0869 µM
IC50 (T84): > 0.1 µM
IC50 (639-V): 0.000171 µM
IC50 (8305C): 0.094 µM
IC50 (A-431): > 0.1 µM
IC50 (AU565): 0.00368 µM
IC50 (BFTC-905): 0.00014 µM
IC50 (U-251): 0.00187 µM

— ChEMBL document CHEMBL1201861, “Genomics of Drug Sensitity in Cancer screening data, Wellcome Trust Sanger Institute”
